From US7320679B2, “Therapeutic use of growth factor, and delivery device, especially for the treatment of intimal hyperplasia” (Ark Therapeutics, Ltd., priority 1996, dated 2008) come the findings set out here.

Assay type in all cases: cell-based, human
For one series, the system named is PGI2 synthesis in HUVEC. Kind of series: PGI2 assay (radioimmunoassay of 6-keto-PGF1a) in HUVEC. The conditions noted are these: for mean fold increase in 6-keto PGF1a above control unstimulated level: 60 min, 60 ng/ml PIGF, 1 U/ml thrombin. On the procedure: (§1) Cell Culture: HUVECs were obtained either from Clonetics and cultured in the manufacturer's own medium supplemented with 2% FBS, or were grown from fresh umbilical cords by collagenase digestion and cultured on 1% gelatin-coated plates in medium 199 supplemented with 20% FCS and endothelial cell growth supplement (Wheeler-Jones et al, Biochem. J. (1996) 315:407-416). For experimental purposes, primary cultures of HUVEC were dispersed by treatment with 0.05% trypsin/0.02% EDTA for 5 min at 37° C. and then replated in either 90 mm, 60 mm or 35 mm plastic dishes, or onto 24-well plates. Cultures were maintained in a humidified atmosphere containing 5% CO2 and […] at 37° C. and used after 6-8 days or when the cells had formed a confluent monolayer. […] The PGI2 content of cell supernatants was quantified by radioimmunoassay of 6-keto-PGF1a, the stable breakdown product of PGI2 as previously described (Wheeler-Jones et al, supra). Arachidonic Acid Release: Arachidonic acid release was determined essentially as described (Domin and Rozengurt, J. Biol. Chem. (1993) 268:8927-8934.). Confluent HUVEC cultures were incubated for 24 h with [5,6,8,9,11,12,14,15-^3H]arachidonic acid (1 mCi/ml, 211 Ci/mmol). […] After treatment, the medium was removed, centrifuged in a microcentrifuge at 16,000×g for 5 min, and the radioactivity in the supernatant was determined by counting in a scintillation counter. Western Blotting Procedures: Treatment of quiescent cultures of cells with factors, and cell lysis were performed as described above and in the Results and Figure Legends. After SDS-PAGE, proteins were transferred to Immobilon membranes (Millipore Inc.). For MAP kinase assays, membranes were blocked using 5% non-fat dried milk in PBS, pH 7.2, and incubated for 3-5 h in PBS/0.05% Tween-20 containing primary antibody (1 mg/ml) as indicated. For immunoblots with antibody to cPLA2, membranes were blocked for 3 h in TBST50 mM Tris/HCl, 150 mM NaCl, 0.02% (v/v) Tween 20 pH 7.4 (TBST) containing 0.2% (w/v) 1-block (Tropix), then incubated with primary antiserum in TBST. Membranes were then washed six times (10 min each wash) in TBST and incubated for 1 hour in TBST containing HRP-conjugated secondary antibody. Immunoreactive bands were visualized by chemiluminescence using HRP-conjugated anti-mouse or anti-rabbit IgG and ECL™ reagent according to the manufacturers instructions. MAP Kinase Assay: Cells were treated with factors as indicated, washed rapidly twice with ice-cold PBS and immediately extracted by the addition of […] boiling 2×SDS-PAGE sample buffer. Cell extracts were collected by scraping, heated to 95° C. for 10 min and run on 12.5% acrylamide SDS-PAGE gels. Following transfer to Immobilon membranes, proteins were immunoblotted with an antibody which specifically recognizes p42 and p44 MAP kinases (Erk-1 and Erk-2) activated by phosphorylation at Tyr204 (Payne e al, EMBO J. (1991) 10:885-892.). cPLA2 Mobility Shift Assay: Confluent quiescent HUVECs in 60 mm dishes were washed twice in serum-free medium 199 (pH 7.4) and subsequently exposed, for the times indicated, to medium containing factors as detailed in the Figure legends. Cell lysates were prepared as previously described (Wheeler-Jones et al, supra). Proteins were separated by SDS-PAGE (10% acrylamide) and after transfer to membranes were immunoblotted with polyclonal anti-serum to cPLA2 (BorschHaubold et al, J. Biol. Chem. (1995) 270: 25885-25892; and Kramer et al, J. Biol. Chem. (1996) 271:27723-27729). Assay of vWF Secretion: vWF secretion was measured by ELISA (Wheeler-Jones et al, supra) in samples of medium obtained from confluent cultures of HUVECs which had been treated with factors, as indicated. Plates were coated with the anti-vWF mAb CLBRAg35, and the lower detection limit of the assay was approximately 1.0 mU/ml. Materials: Recombinant VEGF was obtained either from UBI or from R & D Systems. […]

Another series has as its system cPLA2. Kind of series: cPLA2 mobility shift assay in HUVEC. On the set-up: effect of PD98059 on VEGF-stimulated increase in slow-migrating cPLA2: dose or concentration left out as unconfirmed. On the procedure:
as §1

In another series the test system is vWF secretion by HUVECs. Kind of series: vWF secretion by ELISA in HUVEC. Also noted: effect of PD98059 on VEGF-induced vWF secretion: dose or concentration left out as unconfirmed. On the procedure:
as §1

The next series has as its system p42/p44 MAP kinases. Kind of series: MAP kinase assay (phospho-p42/p44 immunoblot) in HUVEC. On the set-up: inhibition of VEGF-stimulated MAP kinase activity: dose or concentration left out as unconfirmed. On the procedure: as §1
The test system of series [1] is 205 kD protein corresponding to VEGF receptor. The series can be described thus: Anti-phosphotyrosine immunoprecipitation/immunoblot in HUVEC. The conditions noted are these: HUVEC. On the procedure:
In some experiments, cells were pretreated for 1 h with 100 μM L-NAME and subsequently treated either with or without. […] The medium was removed and cells were rapidly lysed at 4° C. by addition of 10 mM Tris/HCl (pH 7.6), 5 mM EDTA, 50 mM NaCl, 30 mM sodium pyrophosphate, 50 mM NaF, 0.1 mM Na3VO4, 1 mM PMSF and 1% Triton X-100 (lysis buffer). Lysates were clarified by centrifugation at 15000×g for 10 min, and immunoprecipitations were performed by incubating clarified lysates with PY20 anti-phosphotyrosine mAb for 2 h at […] Immunoprecipitates were collected by incubating lysates for a further 1 hour with protein A-agarose. Immunoprecipitates were washed three times with lysis buffer and proteins were then extracted with 2×SDS-PAGE sample buffer. After SDS-PAGE, immunoprecipitated proteins were transferred to membranes and then immunoblotted with PY20 mAb.

The next series deals with NO production in HUVEC. The series can be described thus: Nitrite (NO) production in HUVEC, capillary detection method.
For series [2], the system named is arachidonic acid release in HUVEC. Kind of series: Arachidonic acid release from prelabelled HUVEC. On the procedure: as §1
Another series deals with HUVECs. Kind of series: Migration of HUVECs in chemotaxis chambers. The settings on record: PIGF 5-60 ng/ml.

Several values for one entry are separate records, joined by “and”; a condition that tells them apart may be missing. Identical values can stand only once. Entries after “also recorded” stand apart in the source; their conditions may differ. Like-named read-outs stand apart in the source and are kept apart here.

Description for NO production in HUVEC: Nitrite production was measured using capillary detection method (Leone et al, in Methods in Nitric Oxide Research, Feelisch and Stanler, eds. John Wiley & Sons, New York (1996) 499-508).

As for `COc1cccc(-c2cc(=O)c3ccccc3o2)c1N` [PD98059, reference compound], in the series with PGI2 synthesis in HUVEC, the concentration of maximum inhibitory effect on stimulated PGI2 production turned out to be 10 µM. Besides, the “effect of PD98059 on VEGF-induced PGI2 production” value with PGI2 synthesis in HUVEC (30 mM PD98059 30 min pretreatment, 25 ng/ml VEGF 60 min) is given as “completely inhibited; also recorded: complete inhibition”. Also, the “effect of PD98059 on thrombin-induced PGI2 production” value in the series with PGI2 synthesis in HUVEC (30 mM PD98059 30 min pretreatment, 1 U/ml thrombin 60 min) was “completely inhibited”. In addition, the “inhibitor concentration at which PGI2 production fell below control values” in the series with PGI2 synthesis in HUVEC (VEGF-treated cells) is recorded as “greater than 10 mM”. Also, in the series with PGI2 synthesis in HUVEC (basal), the “PGI2 production in control, unstimulated cells” value is recorded as “abolished”. Besides, in the series on cPLA2, the “effect of PD98059 on VEGF-stimulated increase in slow-migrating cPLA2” value was “completely blocked; also recorded: complete inhibition”. Moreover, in the series with vWF secretion by HUVECs, the “effect of PD98059 on VEGF-induced vWF secretion” value was “neither prevented nor significantly reduced; also recorded: no effect” and the “effect of PD98059 on basal or thrombin-stimulated vWF secretion” value was “no effect”. Also, in the series with p42/p44 MAP kinases, the “concentration reducing MAP kinase activity to control, unstimulated level” value lay within 10 to 20 mM and the “inhibition of VEGF-stimulated MAP kinase activity” value was “greater than 50%”. Besides, the “effect of PD98059 on VEGF stimulation of p42/p44 MAP kinases” value in the series with p42/p44 MAP kinases (30 min pretreatment) is recorded as “completely inhibited; also recorded: complete inhibition”.

With VEGF, the “concentration range inducing tyrosine phosphorylation of 205 kDa protein” value in series [1] lay in the range of 1 to 25 ng/mL. The “time for which NO production was sustained” value in the series on NO production in HUVEC is given as “up to 2 hours”. The “half-maximal effect on NO production” value in the series with NO production in HUVEC (HUVEC, nitrite levels) amounted to 5 ng/mL. This molecule yielded a nitrite production level in the series with NO production in HUVEC (VEGF 2.5 ng/ml, 10 minutes (first of two levels)) of around 19 µM. The same molecule came in with a nitrite production level in the series with NO production in HUVEC (VEGF 25 ng/ml for times up to 2 h) of 1.8 to 2 µM. For the same molecule, in the series on NO production in HUVEC (VEGF 25 ng/ml, 10 minutes (second of two levels)), the nitrite production level is around 2.1 µM. In addition, in the series with NO production in HUVEC (after addition of VEGF), the “earliest time effect on NO production seen” value was determined as 30 s and the “time of maximum NO production” value is reported as 5 min. Besides, in the series on PGI2 synthesis in HUVEC, the “time for which PGI2 production was sustained” value is given as “up to 2 h” and the “time up to which PGI2 production continued to increase” value was “up to 60 min”. Besides, in the series on PGI2 synthesis in HUVEC (25 ng/ml VEGF), the “PGI2 synthesis at 25 ng/ml” value was “small decline”; the “mean fold increase in 6-keto PGF1a above control unstimulated level” value (“mean fold increase” below) was 2.0 fold and 2 fold. In the series with PGI2 synthesis in HUVEC (60 min incubation), the “concentration at which increase in PGI2 synthesis was detectable” value turned out to be 5 ng/mL, the “concentration of maximum PGI2 synthesis” value worked out at 15 ng/mL and the “half-maximal PGI2 synthesis” value amounted to 10 ng/mL. Further, in series [2], the “concentration of maximum arachidonic acid release” value lay within 10 to 20 ng/mL, the “half-maximum effect on arachidonic acid release” value is 2.5 to 5 ng/mL, the “mean increase in release of labelled arachidonic acid above basal unstimulated level” value came out at 1.6 fold and the “time at which arachidonic acid release was evident” value was 10 min. Moreover, in series [2], the “time of half-maximum arachidonic acid mobilization” value stood at 10 min and the “time of maximum arachidonic acid release” value is recorded as 30 min. For the same molecule, in the series with cPLA2, the “cPLA2 mobility shift (in words)” value is listed as “marked increase in the immunoreactivity of the slow-migrating form”; the “concentration giving noticeable increase in slow-migrating cPLA2” value came out at 2.5 ng/mL; the “concentration of maximum increase in slow-migrating cPLA2” value is 5 to 10 ng/mL and 5 ng/mL. For the same molecule, in the series on cPLA2 (VEGF 25 ng/ml), the “time at which cPLA2 shift to slow-migrating form was detectable” value is given as 2 min, the “time for which cPLA2 shift was sustained” value was “up to 60 min” and the “time of maximum cPLA2 shift” value came to 15 min. In the series with vWF secretion by HUVECs, the “vWF secretion (in words)” value is “comparable to, though consistently weaker than, that of thrombin”. The “vWF level above control cells” value with vWF secretion by HUVECs (25 ng/ml VEGF, 3 h) was found to be 2.5 fold. Also, in the series on vWF secretion by HUVECs (highest concentration tested), the “concentration of maximum effect on vWF secretion” value was found to be 25 ng/mL. For the same molecule, in the series with p42/p44 MAP kinases (15 min exposure), the “concentration of maximum MAP kinase activation” value was 10 ng/mL and 5 to 10 ng/mL; the “concentration up to which maximum MAP kinase effect was sustained” value was “up to 50 ng/ml”. Further, in the series with HUVECs, the “chemotaxis of HUVECs” value is on record as “concentration-dependent increase in chemotaxis”.

As for thrombin [reference compound], the “mean fold increase” value in the series on PGI2 synthesis in HUVEC (25 ng/ml VEGF) was 4.4 fold. In addition, the “mean increase in release of labelled arachidonic acid above basal unstimulated level” value in series [2] (four independent experiments) was determined as 3.4 fold. In the series on cPLA2, the “cPLA2 mobility shift (in words)” value was “striking shift”.

B1: PIGF: VEGF-related factor, a specific ligand for the Flt-1 VEGF receptor; recombinant (protein)
chain: AVPPQQWALSAGNGSSEVEVVPFQEVWGRSYCRALERLVDVVSEYPSEVEHMFSPSCVSLLRCTGCCGDENLHCVPVETANVTMQLLKIRSGDRPSYVELTFSQHVRCECRPLREKMKPERCGDAVPRR
Turning to B1, in the series with PGI2 synthesis in HUVEC (25 ng/ml VEGF), the “mean fold increase” value amounted to 1.3 fold. The “arachidonic acid release (in words)” value in series [2] (prelabelled HUVECs) was “no detectable significant increase”. For the same molecule, the “cPLA2 mobility shift (in words)” value in the series on cPLA2 is on record as “no detectable shift”. In the series with vWF secretion by HUVECs, the “vWF secretion (in words)” value was “no detectable stimulation”. Further, the “MAP kinase activity (in words)” value with p42/p44 MAP kinases (PIGF 1-60 ng/ml) was “little, if any, detectable increase; also recorded: little effect”. Further, the “chemotaxis of HUVECs” value in the series on HUVECs was “no detectable increase”.
